Assays:
tumor models = conditions: current specific activity
[1] = Radiochemical purity and stability of 68GaPSMA-R2 by HPLC; type: physicochemical; conditions: for stability to the radiolytic degradation / radiochemical purity: up to 4 hours; for stability to the radiolytic degradation: without gentisic acid; for radiochemical purity: without the gentisic acid
Experimental: Radiochemical purity and identification of ^68GaPSMA-R2 by HPLC
Chromatographic conditions
The molecule was labelled with ^68Ga using E&Z generator with an activity in the range of […]. The labelling was performed at 95° C. for 7 minutes with Gallium buffer (pH 3.2-3.8). Experiments were performed by testing different amount of gentisic acid as radiolytic scavenger and peptide amounts (15 μg and 30 μg). In all tests 20 mg of mannitol were added as cake forming.

[2] = cited from earlier work

Row | Compound | biodistribution profile (tumor models) | stability to the radiolytic degradation [1] | stability to the radiolytic degradation ([1]; listed as 68Ga-PSMA-R2) | radiochemical purity [1] | radiochemical purity ([1]; listed as 68Ga-PSMA-R2) | 68Ga free ([1]; when gentisic acid is not used in the formulation) | pKa (20° C.) [2]
1 | O=C([O-])CN1CCN(CC(=O)[O-])CCN(CC(=O)NCCCCCC(=O)N(CCCC[C@H](NC(=O)N[C@@H](CCC(=O)O)C(=O)O)C(=O)O)Cc2ccc(Br)cc2)CCN(CC(=O)[O-])CC1.[68Ga+3] [68GaPSMA-R2] | favourable biodistribution profile in tumor models (major uptake in tumor and kidneys, relatively low uptake in other organs) | good stability to the radiolytic degradation | intrinsic stability to the radiolytic degradation | higher than 92% | over 92% | under 2% | –
2 | O=C(O)CCC(=O)O [Succinic acid] | – | – | – | – | – | – | 4.22

Source: patent publication US20230330278A1, “METHODS FOR RADIOLABELLING PSMA BINDING LIGANDS AND THEIR KITS” (Novartis AG, priority 2020, published 2023)
